Results taken from patent US8507483B2, “1H-pyrimidin-2-one derivatives, preparation thereof and pharmaceutical use thereof as inhibitors of AKT (PKB) phosphorylation” (Sanofi, priority 2009, dated 2013).

Each molecule was assayed on AKT protein phosphorylated on serine 473 (P-AKT-S473) in PC3 human prostate carcinoma cells (assay: pAKT expression in PC3 cells measured by MSD Multi-spot Biomarker Detection (Test B)). Conditions: PC-3, inhibition of AKT Ser473 phosphorylation, 1 to 2 h incubation, MSD sandwich immunoassay, absolute IC50, mean of two experiments.
Format: cell-based
Experimental: The inhibitory activity of the molecules on AKT phosphorylation is measured either by western blotting using the technique described below, or by the MSD Multi-spot Biomarker detection technique from Meso Scale Discovery also described below.
Where appropriate, the activity of the products is translated into approximately IC50, obtained from a dose-response curve of various concentrations tested and representing the dose giving 50% of specific inhibition (absolute IC50). Two independent experiments make it possible to calculate the mean of the IC50s. Study of pAKT expression in PC3 human prostate carcinoma cells measured by the MSD Multi-spot Biomarker Detection technique from Meso Scale Discovery (Test B): This test is based on measuring the expression of the AKT protein phosphorylated on serine 473 (P-AKT-S473), in the PC3 human prostate carcinoma line, by means of the technique based on a sandwich immunoassay using the MSD Multi-spot Biomarker Detection kit from Meso Scale Discovery: phospho-Akt (Ser473) whole cell lysate kit (#K151 CAD) or phospho-Akt (Ser473)/Total Akt whole cell lysate kit (#K151OOD).
The primary antibody specific for P-AKT-5473 (Kit #K151 CAD) is coated onto an electrode in each well of the 96-well plates of the MSD kit: after the addition of a protein lysate to each well, the signal is visualised by adding a secondary detection antibody labelled with an electrochemoluminescent compound. The procedure followed is that described in the kit.
On day 1, the PC3 cells are seeded into 96-well plates (TPP, #92096) at the concentration of 35 000 cells/well in 200 μl of DMEM medium (DMEM Gibco #11960-044) containing 10% of foetal calf serum (FCS Gibco, #10500-056) and 1% glutamine (L-Glu Gibco #25030-024), and incubated at 37° C., 5% CO2, overnight.
On day 2, the cells are incubated in the presence or absence of the test products for 1 to 2 h at 37° C. in the presence of 5% of CO2. The molecules, diluted in dimethyl sulphoxide (DMSO Sigma #D2650), are added from a 20-times concentrated stock solution, the final percentage of DMSO being 0.1%. The molecules are tested either at a single concentration of less than or equal to 10 μM, or at increasing concentrations in a range that can extend from less than 1 nM to 10 μM.
After this incubation, the cells are lysed for the preparation of the proteins. For this, after the culture medium has been drawn off, […] of complete Tris Lysis Buffer of the MSD kit containing the protease and phosphatase inhibitor solutions are added to the wells and the cells are lysed for 1 h at 4° C. with shaking At this stage, the plates containing the lysates can be frozen at −20° C. or at −80° C.
The wells of the 96-well plates of the MSD kit are saturated for 1 h at ambient temperature with the blocking solution of the MSD kit. Four washes are carried out with 150 μl of Tris Wash Buffer of the MSD kit. The lysates previously prepared are transferred into the 96-well multi-spot plates of the MSD kit and incubated for 1 h at ambient temperature, with shaking Four washes are carried out with 150 μl of Tris Wash Buffer of the MSD kit. 25 μl of the MSD sulpho-tag detection antibody solution are added to the wells and incubated for 1 h at ambient temperature, with shaking Four washes are carried out with 150 μl of Tris Wash Buffer of the MSD kit. 150 μl of Read Buffer of the MSD kit are added to the wells and the plates are read immediately on the 512400 instrument from Meso Scale Discovery.
The instrument measures a signal for each well. Wells without cells and containing the lysis buffer serve to determine the background noise that will be subtracted from all the measurements (min). The wells containing cells in the absence of product and in the presence of 0.1% DMSO are considered to be the 100% signal (max). The percentage inhibition is calculated for each concentration of test product according to the following formula: (1−((test−min)/(max−min)))×100. […]

| IC50 | Structure (SMILES) |
| --- | --- |
| 475 nM | COc1ccc2nc(Cc3nc(N4CCOCC4)cc(=O)[nH]3)[nH]c2c1 [Example 4, 2-[(6-methoxy-1H-benzimidazol-2-yl)methyl]-6-(morpholin-4-yl)pyrimidin-4(3H)-one] |
| 143 nM | Cc1ccc2nc(Cc3nc(N4CCOCC4)cc(=O)[nH]3)oc2c1 [Example 8, 2-[(6-methyl-1,3-benzoxazol-2-yl)methyl]-6-(morpholin-4-yl)pyrimidin-4(3H)one] |
| 175 nM | O=c1cc(N2CCOCC2)nc(Cc2nc3ccc(Br)cc3o2)[nH]1 [Example 9, 2-[(6-bromo-1,3-benzoxazol-2-yl)methyl]-6-(morpholin-4-yl)pyrimidin-4(3H)-one] |
| 16 nM | Cn1c(Cc2nc(N3CCOCC3)cc(=O)[nH]2)nc2cc(F)ccc21 [Example 11, 2-[(5-fluoro-1-methyl-1H-benzimidazol-2-yl)methyl]-6-(morpholin-4-yl)pyrimidin-4(3H)-one] |
| 88 nM | O=c1cc(N2CCOCC2)nc(Cc2nc3cccc(F)c3o2)[nH]1 [Example 12, 2-[(7-fluoro-1,3-benzoxazol-2-yl)methyl]-6-(morpholin-4-yl)pyrimidin-4(3H)-one] |
| 8 nM | O=c1cc(N2CCOCC2)nc(Cc2nc3ccccc3n2-c2ccccc2)[nH]1 [Example 13, 6-(morpholin-4-yl)-2-[(1-phenyl-1H-benzimidazol-2-yl)methyl]pyrimidin-4(3H)-one] |
| 105 nM | O=c1cc(N2CCOCC2)nc(Cc2nc3ccccc3n2Cc2ccccc2)[nH]1 [Example 14, 2-[(1-benzyl-1H-benzimidazol-2-yl)methyl]-6-(morpholin-4-yl)pyrimidin-4(3H)-one] |
| 26 nM | CCn1c(Cc2nc(N3CCOCC3)cc(=O)[nH]2)nc2ccccc21 [Example 15, 2-[(1-ethyl-1H-benzimidazol-2-yl)methyl]-6-(morpholin-4-yl)pyrimidin-4(3H)-one] |
| 187 nM | O=c1cc(N2CCOCC2)nc(Cc2nc3cc(F)c(F)cc3o2)[nH]1 [Example 16, 2-[(5,6-difluoro-1,3-benzoxazol-2-yl)methyl]-6-(morpholin-4-yl)pyrimidin-4(3H)-one] |
| 63 nM | O=c1cc(N2CCOCC2)nc(Cc2nc3ccc(Cl)cc3[nH]2)[nH]1 [Example 17, 2-[(6-chloro-1H-benzimidazol-2-yl)methyl]-6-(morpholin-4-yl)pyrimidin-4(3H)-one] |
| 109 nM | COCCn1c(Cc2nc(N3CCOCC3)cc(=O)[nH]2)nc2cc(F)ccc21 [Example 19, 2-{[5-fluoro-1-(2-methoxyethyl)-1H-benzimidazol-2-yl]methyl}-6-(morpholin-4-yl)pyrimidin-4(3H)-one] |
| 1000 nM | O=c1cc(N2CCOCC2)nc(Cc2nc3ccc4ccccc4c3o2)[nH]1 [Example 20, 6-(morpholin-4-yl)-2-(naphtho[2,1-d][1,3]oxazol-2-ylmethyl)pyrimidin-4(3H)-one] |
| 18 nM | COc1ccc2nc(Cc3nc(N4CCOCC4)cc(=O)[nH]3)oc2c1 [Example 21, 2-[(6-methoxy-1,3-benzoxazol-2-yl)methyl]-6-(morpholin-4-yl)pyrimidin-4(3H)-one] |
| 28 nM | O=c1cc(N2CCOCC2)nc(Cc2nc3ccc(F)c(F)c3o2)[nH]1 [Example 22, 2-[(6,7-difluoro-1,3-benzoxazol-2-yl)methyl]-6-(morpholin-4-yl)pyrimidin-4(3H)-one] |
| 193 nM | O=c1cc(N2CCOCC2)nc(Cc2nc3cc(Cl)c(Cl)cc3[nH]2)[nH]1 [Example 23, 2-[(5,6-dichloro-1H-benzimidazol-2-yl)methyl]-6-(morpholin-4-yl)pyrimidin-4(3H)-one] |
| 140 nM | Cc1ccc2nc(Cc3nc(N4CCOCC4)cc(=O)[nH]3)[nH]c2c1 [Example 24, 2-[(6-methyl-1H-benzimidazol-2-yl)methyl]-6-(morpholin-4 yl)pyrimidin-4(3H)-one] |
| 3000 nM | O=c1cc(N2CCOCC2)nc(Cc2nc3c(Cl)cc(C(F)(F)F)cc3[nH]2)[nH]1 [Example 25, 2-{[4-chloro-6-(trifluoromethyl)-1H-benzimidazol-2-yl]methyl}-6-(morpholin-4-yl)pyrimidin-4(3H)-one] |
